We go through one molecule from patent US8183248B2, “Substituted pyrrolo[2,3-d]pyrimidines and compositions as protein kinase inhibitors” (IRM LLC, priority 2005, dated 2012).

pIC50: −log10 of the molar value.

Assay [1] concerns the target T1, E255V Bcr-abl (Ba/F3 cells) (Homo sapiens, UniProt P00519, E255V).
T1 construct: expressed in transfected cells; host or cells: Ba/F3 (murine pro-B cells); the other entry of the earlier key: BCR (P11274, Breakpoint cluster region protein)
Description: Proliferation of Ba/F3 cells expressing E255V Bcr-abl. Format: cell-based. On the procedure: (§1) 32D-p210 cells are plated into 96 well TC plates at a density of 15,000 cells per well. 50 μL of two fold serial dilutions of the test compound (Cmax is 40 μM) are added to each well (STI571 is included as a positive control). After incubating the cells for 48 hours at 37° C., 5% CO2, 15 μL of MTT (Promega) is added to each well and the cells are incubated for an additional 5 hours. The optical density at 570 nm is quantified spectrophotometrically and IC50 values, the concentration of compound required for 50% inhibition, determined from a dose response curve.
(§2) Compounds of the invention are tested for their antiproliferative effect on Ba/F3 cells expressing either wild type or the mutant forms of BCR-Abl (G250E, E255V, T315I, F317L, M351T) that confers resistance or diminished sensitivity to STI571. The antiproliferative effect of these compounds on the mutant-BCR-Abl expressing cells and on the non transformed cells were tested at 10, 3.3, 1.1 and 0.37 μM as described above (in media lacking IL3). The IC50 values of the compounds lacking toxicity on the untransformed cells were determined from the dose response curves obtained as describe above.

Assay [2] concerns the target T2, T315I Bcr-abl (Ba/F3 cells) (Homo sapiens, UniProt P00519, T315I).
T2 construct: expressed in transfected cells; host or cells: Ba/F3 (murine pro-B cells); the other entry of the earlier key: BCR (P11274, Breakpoint cluster region protein)
Description: Proliferation of Ba/F3 cells expressing T315I Bcr-abl. Format: cell-based. On the procedure: as §1, §2

The target in assay [3] is T3, M351T Bcr-abl (Ba/F3 cells) (Homo sapiens, UniProt P00519, M351T).
T3 construct: expressed in transfected cells; host or cells: Ba/F3 (murine pro-B cells); the other entry of the earlier key: BCR (P11274, Breakpoint cluster region protein)
Description: Proliferation of Ba/F3 cells expressing M351T Bcr-abl. It counts as cell-based. On the procedure: as §1, §2

The target in assay [4] is T4, FGFR3 (Homo sapiens, UniProt P22607).
T4 construct: if the value comes from the Ba/F3-TEL-FGFR3 test; If it comes from the purified enzyme, only the vendor's tag
Description: FGFR3 (Enzymatic Assay). It counts as biochemical. On the procedure: Kinase activity assay with purified FGFR3 (Upstate) is carried out in a final volume of 10 μL containing 0.25 μg/mL of enzyme in kinase buffer (30 mM Tris-HCl pH7.5, 15 mM MgCl2, 4.5 mM MnCl2, 15 μM Na3VO4 and 50 μg/mL BSA), and substrates (5 μg/mL biotin-poly-EY(Glu, Tyr) (CIS-US, Inc.) and 3 μM ATP). Two solutions are made: the first solution of 5 μl contains the FGFR3 enzyme in kinase buffer was first dispensed into 384-format ProxiPlate® (Perkin-Elmer) followed by adding […] of compounds dissolved in DMSO, then […] of second solution contains the substrate (poly-EY) and ATP in kinase buffer was added to each wells. The reactions are incubated at room temperature for one hour, stopped by adding 10 μL of HTRF detection mixture, which contains 30 mM Tris-HCl pH7.5, 0.5 M KF, 50 mM ETDA, 0.2 mg/mL BSA, 15 μg/mL streptavidin-XL665 (CIS-US, Inc.) and 150 ng/mL cryptate conjugated anti-phosphotyrosine antibody (CIS-US, Inc.). After one hour of room temperature incubation to allow for streptavidin-biotin interaction, time resolved florescent signals are read on Analyst GT (Molecular Devices Corp.). IC50 values are calculated by […] analysis of the percentage inhibition of each compound at 12 concentrations (1:3 dilution from 50 μM to 0.28 nM).

Assay [5] addresses T5, PDGFR-β (Homo sapiens, UniProt P09619).
T5 construct: fused on or other part: P41212 (Transcription factor ETV6)
Description: PDGFRβ (Cellular Assay), Ba/F3-Tel-PDGFRβ proliferation. Format: cell-based. Conditions: read-out: IC50 for PDGFR-β.

T5 sequence (P09619 600-962 limits assumed, change not shown): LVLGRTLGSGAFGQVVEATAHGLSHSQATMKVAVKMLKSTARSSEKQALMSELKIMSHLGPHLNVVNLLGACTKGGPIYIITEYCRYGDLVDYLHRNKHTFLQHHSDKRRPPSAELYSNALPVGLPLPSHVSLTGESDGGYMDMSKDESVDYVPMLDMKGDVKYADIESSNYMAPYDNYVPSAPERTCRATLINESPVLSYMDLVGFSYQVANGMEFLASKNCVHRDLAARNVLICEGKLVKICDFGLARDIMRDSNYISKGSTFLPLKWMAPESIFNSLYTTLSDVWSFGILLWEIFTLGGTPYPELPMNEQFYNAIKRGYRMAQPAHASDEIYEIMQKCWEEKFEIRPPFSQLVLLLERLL
T4 sequence (P22607 whole entry): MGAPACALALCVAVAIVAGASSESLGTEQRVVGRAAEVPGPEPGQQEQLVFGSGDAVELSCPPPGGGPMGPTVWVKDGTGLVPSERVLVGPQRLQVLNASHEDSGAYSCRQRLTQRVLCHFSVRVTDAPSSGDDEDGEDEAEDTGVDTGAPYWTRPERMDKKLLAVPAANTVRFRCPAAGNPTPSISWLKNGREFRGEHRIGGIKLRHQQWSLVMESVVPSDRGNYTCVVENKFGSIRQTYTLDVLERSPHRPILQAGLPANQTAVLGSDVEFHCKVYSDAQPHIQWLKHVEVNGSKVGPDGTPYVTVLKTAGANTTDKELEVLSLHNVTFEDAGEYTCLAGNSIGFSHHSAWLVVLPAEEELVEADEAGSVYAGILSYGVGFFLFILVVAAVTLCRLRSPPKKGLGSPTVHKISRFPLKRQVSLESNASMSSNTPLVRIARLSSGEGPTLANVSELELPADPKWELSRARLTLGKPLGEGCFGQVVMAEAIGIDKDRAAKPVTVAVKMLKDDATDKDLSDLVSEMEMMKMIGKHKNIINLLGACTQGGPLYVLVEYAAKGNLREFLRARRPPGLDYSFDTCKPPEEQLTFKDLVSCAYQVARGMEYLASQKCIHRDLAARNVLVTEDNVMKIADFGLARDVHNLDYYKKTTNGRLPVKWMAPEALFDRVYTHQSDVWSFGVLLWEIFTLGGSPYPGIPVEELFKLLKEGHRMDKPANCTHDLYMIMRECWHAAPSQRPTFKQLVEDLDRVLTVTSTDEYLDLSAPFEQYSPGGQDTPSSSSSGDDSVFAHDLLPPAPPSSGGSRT

Consider `CCN1CCN(Cc2ccc(NC(=O)c3ccc(C)c(NC(=O)N(C)c4ncnc5[nH]ccc45)c3)cc2C(F)(F)F)CC1` [Example 4, N-[4-(4-Ethyl-piperazin-1-ylmethyl)-3-trifluoromethyl-phenyl]-4-methyl-3-[3-methyl-3-(7H-pyrrolo[2,3-d]pyrimidin-4-yl)-ureido]-benzamide], for which the pIC50 was over 8.30 in assay [1], over 8.30 in assay [2], over 8.30 in assay [3] and 7.44 in assay [4]. Moreover, the GI50 in assay [5] was found to be 3.8 nM.
